Target: T1, purified human HDAC6 (Homo sapiens, UniProt Q9UBN7)
T1 construct: purchased BPS Bioscience 5006
T1 sequence (Q9UBN7 1-1215): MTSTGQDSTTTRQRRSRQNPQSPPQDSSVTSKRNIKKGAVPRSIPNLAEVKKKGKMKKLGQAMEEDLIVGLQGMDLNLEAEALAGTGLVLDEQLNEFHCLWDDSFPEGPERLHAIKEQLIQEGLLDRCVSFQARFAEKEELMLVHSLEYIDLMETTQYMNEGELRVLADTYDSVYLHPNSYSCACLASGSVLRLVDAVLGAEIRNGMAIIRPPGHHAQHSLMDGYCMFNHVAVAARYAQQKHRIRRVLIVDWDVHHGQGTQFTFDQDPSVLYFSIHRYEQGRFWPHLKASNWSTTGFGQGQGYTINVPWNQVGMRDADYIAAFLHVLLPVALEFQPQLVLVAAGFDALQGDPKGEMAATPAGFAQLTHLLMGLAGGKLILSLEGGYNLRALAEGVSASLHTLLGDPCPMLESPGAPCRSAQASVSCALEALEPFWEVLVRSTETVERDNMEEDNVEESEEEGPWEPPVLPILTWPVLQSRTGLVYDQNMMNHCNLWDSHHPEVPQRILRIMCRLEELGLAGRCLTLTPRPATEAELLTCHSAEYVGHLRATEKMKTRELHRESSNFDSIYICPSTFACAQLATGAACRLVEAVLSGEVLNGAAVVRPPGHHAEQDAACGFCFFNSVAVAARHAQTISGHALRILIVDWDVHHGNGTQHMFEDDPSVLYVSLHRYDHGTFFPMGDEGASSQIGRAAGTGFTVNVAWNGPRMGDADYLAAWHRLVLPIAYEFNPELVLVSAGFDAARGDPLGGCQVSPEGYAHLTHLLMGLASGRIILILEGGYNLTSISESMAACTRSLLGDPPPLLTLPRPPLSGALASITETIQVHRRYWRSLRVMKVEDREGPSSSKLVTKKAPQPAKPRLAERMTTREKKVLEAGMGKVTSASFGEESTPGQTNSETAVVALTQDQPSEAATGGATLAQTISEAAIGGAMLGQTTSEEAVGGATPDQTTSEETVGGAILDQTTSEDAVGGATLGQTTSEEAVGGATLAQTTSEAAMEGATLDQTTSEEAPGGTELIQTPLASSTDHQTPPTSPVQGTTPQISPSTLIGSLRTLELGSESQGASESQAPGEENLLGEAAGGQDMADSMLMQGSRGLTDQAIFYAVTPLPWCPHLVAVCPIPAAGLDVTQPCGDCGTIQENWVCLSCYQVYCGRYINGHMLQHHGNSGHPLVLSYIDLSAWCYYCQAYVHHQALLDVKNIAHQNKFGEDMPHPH
Assay: HDAC6 Enzyme Assay
Type: biochemical
Settings: HDAC6 inhibition at a compound concentration of 0.412 μM; read-out: Percent Inhibition at 0.412 μM
Method: To measure the inhibition of HDAC6 activity, purified human HDAC6 (BPS Bioscience; Cat. No. 5006) is incubated with substrate Ac-Arg-Gly-Lys(Ac)-AMC peptide (Bachem Biosciences; Cat. No. I-1925) for 1 hour at 30° C. in the presence of test compounds or vehicle DMSO control. The reaction is stopped with the HDAC inhibitor trichostatin A (Sigma; Cat. No. T8552) and the amount of Arg-Gly-Lys-AMC generated is quantitated by digestion with trypsin (Sigma; Cat. No. T1426) and subsequent measurement of the amount of AMC released using a fluorescent plate reader (Pherastar; BMG Technologies) set at Ex 340 nm and Em 460 nm. Concentration response curves are generated by calculating the fluorescence increase in test compound-treated samples relative to DMSO-treated controls, and enzyme inhibition (IC50) values are determined from those curves.

| Structure (SMILES) | inhibition at 0.412 µM [%] |
| --- | --- |
| O=C(NO)C1CCc2ccc(Oc3ccc(NCc4ccc(Cl)cc4)cc3)cc2C1 (stereo not shown) [Compound I-73, 7-{4-[(4-chlorobenzyl)amino]phenoxy}-N-hydroxy-1,2,3,4-tetrahydronaphthalene-2-carboxamide] | 64 |
| O=C(NO)C1CCc2ccc(NCc3cccnc3)cc2C1 (stereo not shown) [Compound I-38, N-hydroxy-7-[(pyridin-3-ylmethyl)amino]-1,2,3,4-tetrahydronaphthalene-2-carboxamide] | 57 |
| CC(C)COc1ccc2c(c1)CC(C(=O)NO)CC2 (stereo not shown) [Compound I-7, N-hydroxy-7-isobutoxy-1,2,3,4-tetrahydronaphthalene-2-carboxamide] | 57 |
| COc1ccc(C(=O)Nc2ccc3c(c2)CC(C(=O)NO)CC3)cc1 (stereo not shown) [Compound I-29, N-hydroxy-7-[(4-methoxybenzoyl)amino]-1,2,3,4-tetrahydronaphthalene-2-carboxamide] | 81 |
| CC(C)(C)OC(=O)Nc1cccc(-c2ccc3c(c2)CC(C(=O)NO)CC3)c1 (stereo not shown) [Compound I-62, tert-butyl (3-{7-[(hydroxyamino)carbonyl]-5,6,7,8-tetrahydronaphthalen-2-yl}phenyl)carbamate] | 82 |
| O=C(NO)C1CCc2ccc(-c3ccc(Cl)cc3)cc2C1 (stereo not shown) [Compound I-71, 7-(4-chlorophenyl)-N-hydroxy-1,2,3,4-tetrahydronaphthalene-2-carboxamide] | 74 |
| O=C(NO)C1CCc2ccc(Oc3cccc(NCc4ccccc4)c3)cc2C1 (stereo not shown) [Compound I-59, 7-[3-(benzylamino)phenoxy]-N-hydroxy-1,2,3,4-tetrahydronaphthalene-2-carboxamide] | 76 |
| O=C(NO)C1CCc2ccc(-c3ccc4cc[nH]c4c3)cc2C1 (stereo not shown) [Compound I-72, N-hydroxy-7-(1H-indol-6-yl)-1,2,3,4-tetrahydronaphthalene-2-carboxamide] | 87 |
| O=C(NO)C1CCc2ccc(-c3ccncc3)cc2C1 (stereo not shown) [Compound I-17, N-hydroxy-7-pyridin-4-yl-1,2,3,4-tetrahydronaphthalene-2-carboxamide] | 60 |
| O=C(NO)C1CCc2ccc(C#Cc3ccccc3)cc2C1 (stereo not shown) [Compound I-34, N-hydroxy-7-(phenylethynyl)-1,2,3,4-tetrahydronaphthalene-2-carboxamide] | 57 |
| O=C(NO)C1CCc2ccc(Oc3ccc(NC(=O)C4CC4)cc3)cc2C1 (stereo not shown) [Compound I-56, 7-{4-[(cyclopropylcarbonyl)amino]phenoxy}-N-hydroxy-1,2,3,4-tetrahydronaphthalene-2-carboxamide] | 82 |
| O=C(NO)C1CCc2ccc(-c3ccccc3Cl)cc2C1 (stereo not shown) [Compound I-70, 7-(2-chlorophenyl)-N-hydroxy-1,2,3,4-tetrahydronaphthalene-2-carboxamide] | 78 |
| CC(=O)Nc1cccc(-c2ccc3c(c2)CC(C(=O)NO)CC3)c1 (stereo not shown) [Compound I-24, 7-[3-(acetylamino)phenyl]-N-hydroxy-1,2,3,4-tetrahydronaphthalene-2-carboxamide] | 86 |
| O=C(NO)C1CCc2ccccc2C1 (stereo not shown) [Compound I-3, N-hydroxy-1,2,3,4-tetrahydronaphthalene-2-carboxamide] | 33 |
| O=C(NC1CC1)c1cccc(-c2ccc3c(c2)CC(C(=O)NO)CC3)c1 (stereo not shown) [Compound I-51, 7-{3-[(cyclopropylamino)carbonyl]phenyl}-N-hydroxy-1,2,3,4-tetrahydronaphthalene-2-carboxamide] | 88 |
| O=C(NO)C1CCc2ccc(-c3ccc(S(=O)(=O)N4CCOCC4)cc3)cc2C1 (stereo not shown) [Compound I-117, N-hydroxy-7-[4-(morpholin-4-ylsulfonyl)phenyl]-1,2,3,4-tetrahydronaphthalene-2-carboxamide] | 74 |

| Structure (SMILES) | inhibition at 0.412 µM [%] |
| --- | --- |
| O=C(NO)C1CCc2ccc(-c3cc4ccccc4[nH]3)cc2C1 (stereo not shown) [Compound I-54, N-hydroxy-7-(1H-indol-2-yl)-1,2,3,4-tetrahydronaphthalene-2-carboxamide] | 82 |
| N#Cc1cc(-c2ccc3c(c2)CC(C(=O)NO)CC3)ccc1F (stereo not shown) [Compound I-105, 7-(3-cyano-4-fluorophenyl)-N-hydroxy-1,2,3,4-tetrahydronaphthalene-2-carboxamide] | 61 |
| O=C(NO)C1CCc2ccc(-c3ccc(OCc4ccccc4)cc3)cc2C1 (stereo not shown) [Compound I-121, 7-[4-(benzyloxy)phenyl]-N-hydroxy-1,2,3,4-tetrahydronaphthalene-2-carboxamide] | 54 |
| O=C(NO)C1CCc2ccc(OCc3ccncc3)cc2C1 (stereo not shown) [Compound I-5, N-hydroxy-7-(pyridin-4-ylmethoxy)-1,2,3,4-tetrahydronaphthalene-2-carboxamide] | 58 |
| Cc1ccc(-c2ccc3c(c2)CC(C(=O)NO)CC3)c2ccccc12 (stereo not shown) [Compound I-98, N-hydroxy-4-methyl-5′,6′,7′,8′-tetrahydro-1,2′-binaphthalene-7′-carboxamide] | 78 |
| O=C(NO)C1CCc2ccc(NC(=O)C3CC3)cc2C1 (stereo not shown) [Compound I-22, 7-[(cyclopropylcarbonyl)amino]-N-hydroxy-1,2,3,4-tetrahydronaphthalene-2-carboxamide] | 72 |
| COc1ccc(-c2ccc3c(c2)CC(C(=O)NO)CC3)cc1 (stereo not shown) [Compound I-69, N-hydroxy-7-(4-methoxyphenyl)-1,2,3,4-tetrahydronaphthalene-2-carboxamide] | 79 |
| O=C(NO)C1CCc2cc(-c3ccncc3)ccc2C1 (stereo not shown) [Compound I-66, N-hydroxy-6-pyridin-4-yl-1,2,3,4-tetrahydronaphthalene-2-carboxamide] | 80 |
| CN(C)c1ccc2c(c1)CC(C(=O)NO)CC2 (stereo not shown) [Compound I-40, 7-(dimethylamino)-N-hydroxy-1,2,3,4-tetrahydronaphthalene-2-carboxamide] | 46 |
| CC(C)Oc1ncccc1-c1ccc2c(c1)CC(C(=O)NO)CC2 (stereo not shown) [Compound I-116, N-hydroxy-7-(2-isopropoxypyridin-3-yl)-1,2,3,4-tetrahydronaphthalene-2-carboxamide] | 82 |
| CN(C)C(=O)c1ccc(-c2ccc3c(c2)CC(C(=O)NO)CC3)cc1F (stereo not shown) [Compound I-108, 7-{4-[(dimethylamino)carbonyl]-3-fluorophenyl}-N-hydroxy-1,2,3,4-tetrahydronaphthalene-2-carboxamide] | 75 |
| O=C(NO)C1CCc2ccc(-c3ccc(F)c(Cl)c3)cc2C1 (stereo not shown) [Compound I-119, 7-(3-chloro-4-fluorophenyl)-N-hydroxy-1,2,3,4-tetrahydronaphthalene-2-carboxamide] | 69 |
| NC(=O)c1ccc2c(c1)CC(C(=O)NO)CC2 (stereo not shown) [Compound I-39, N^2-hydroxy-1,2,3,4-tetrahydronaphthalene-2,7-dicarboxamide] | 76 |
| O=C(NO)C1CCc2cc(Nc3ccccc3Cl)ccc2C1 (stereo not shown) [Compound I-83, 6-[(2-chlorophenyl)amino]-N-hydroxy-1,2,3,4-tetrahydronaphthalene-2-carboxamide] | 37 |
| O=C(NO)C1CCc2ccc(Nc3cccc(Cl)c3)cc2C1 (stereo not shown) [Compound I-26, 7-[(3-chlorophenyl)amino]-N-hydroxy-1,2,3,4-tetrahydronaphthalene-2-carboxamide] | 71 |
